# How the values were obtained:
# [1] = test system: cytosolic PLA2; assay: Semiquantitative RT-PCR of cytosolic PLA2 expression in HL-60 cells; assay type: cell-based, human; conditions: HL-60 cells (FIG. 9)
# Method: (§1) Cell culture. Human promyelocytic HL-60 cells and promonocytic U937 cells were grown in RPMI-1640 culture medium supplemented with 10% (v/v) heat-inactivated fetal calf serum, 2 mM L-glutamine, 100 units/ml penicillin and 24 μg/ml gentamicin. Mouse 3T3 fibroblasts were grown in Dulbecco's modified Eagle's medium (DMEM) supplemented with 10% (v/v) heat-inactivated fetal calf serum, 2 mM L-glutamine, 100 units/ml penicillin and 24 μg/ml gentamicin. Cells were incubated at 37° C. in a humidified atmosphere at 5% CO2 and 95% air.
# Reverse transcriptase polymerase chain reaction (RT-PCR). Total RNA was extracted from human neutrophils and cell lines using TRIZOL reagent (GIBCO-BRL) following the manufacturer's instructions. RNA preparations were carefully checked by gel electrophoresis and found to be free of DNA contamination. For the RT reaction, total RNA (10 μg) was primed with oligo-dt and reverse-transcribed into cDNA with 30 units of M-MLV reverse transcriptase from Promega according to manufacturer's instructions in a final volume of 20 μL. The mixture was incubated at 37° C. for 90 min. The generated cDNA was used for the semi-quantitative RT-PCR and the β-actin gene was used as an internal control. […]
# [2] = Body weight evaluation in the TNB colitis rat model; assay type: in vivo; conditions: Wistar rat, Mean ± SEM
# Method: The therapeutic potential for the treatment of ulcerative colitis of IEC01 at 2.5 and 5 mg/kg and IES01 at 2.5 mg/kg, was evaluated after their administration by oral route during 14 days (7 days of preventive treatment and 7 days of therapeutic treatment) using the rat model of experimental colitis induced by TNB (2,4,6-trinitrobenzenesulphonic acid). As reference parameters, the body weight, wet colon weight and score macroscopic evaluation were evaluated after 24 hours and after 7 days of the intraluminal administration of TNB in the colon.
# [3] = test system: PGE2 production in murine fibroblasts 3T3; assay: PGE2 measurement in 3T3 cells (enzyme immunoassay); assay type: cell-based, Mouse
# Method: as §1
# Prostaglandin E2 (PGE2) measurement. 3T3 cells (1.5×10^5 in 100 μl in complete DMEM culture medium) were incubated overnight at 37° C. (5% CO2) in 96-well microtitre plates (tissue-culture grade). Then, the distinct agents were added in 100 μl complete DMEM culture medium for 20 min at 37° C. After washing thoroughly the cells with PBS, cells were lysed and intracellular PGE2 was measured using an enzyme immunoassay kit (Amersham Pharmacia Biotech, Buckinghamshire, UK) following the manufacturer's instructions. Data obtained in duplicate measurements were converted into actual amounts of PGE2 using a calibration curve run in parallel with defined amounts of PGE2.
smiles,measurement,setting,value
"CCCCCCCCCCCCCCCCCCOCC(COP(=O)([O-])OCC[N+](C)(C)C)OC (stereo not drawn) [IEC01, Edelfosine]",mRNA expression of cytosolic PLA2,[1],did not affect
same,Body weight DAY 1,[2]; 2.5 mg/Kg p.o.,233.5 ± 3.07 g
same,Body weight DAY 2,[2]; 2.5 mg/Kg p.o.,236.0 ± 3.42 g
same,Body weight DAY 4,[2]; 2.5 mg/Kg p.o.,240.3 ± 3.60 g
same,Body weight DAY 7,[2]; 2.5 mg/Kg p.o.,210.6 ± 3.05 g
same,Body weight DAY 8,[2]; 2.5 mg/Kg p.o.,214.8 ± 3.41 g
same,Body weight DAY 11,[2]; 2.5 mg/Kg p.o.,234.4 ± 4.53 g
same,Body weight DAY 12,[2]; 2.5 mg/Kg p.o.,241.0 ± 4.04 g
same,Body weight DAY 13,[2]; 2.5 mg/Kg p.o.,244.2 ± 4.16 g
same,Body weight DAY 14,[2]; 2.5 mg/Kg p.o.,249.4 ± 4.42 g
same,Body weight DAY 1,[2]; 5.0 mg/Kg p.o,227.4 ± 1.21 g
same,Body weight DAY 2,[2]; 5.0 mg/Kg p.o,229.1 ± 1.05 g
same,Body weight DAY 4,[2]; 5.0 mg/Kg p.o,235.9 ± 1.63 g
same,Body weight DAY 7,[2]; 5.0 mg/Kg p.o,207.4 ± 1.90 g
same,Body weight DAY 8,[2]; 5.0 mg/Kg p.o,216.2 ± 2.56 g
same,Body weight DAY 11,[2]; 5.0 mg/Kg p.o,237.6 ± 3.35 g
same,Body weight DAY 12,[2]; 5.0 mg/Kg p.o,245.2 ± 3.17 g
same,Body weight DAY 13,[2]; 5.0 mg/Kg p.o,250.6 ± 3.31 g
same,Body weight DAY 14,[2]; 5.0 mg/Kg p.o,253.6 ± 5.34 g
same,pg PGE2 (intracellular),"[3]; 3T3 cells, 10 μM, 20 min at 37° C., Control 112 ± 21",148 ± 22 pg
same,effect on PGE2 production (in words),"[3]; 3T3 fibroblasts, ionomycin-induced PGE2",no significant inhibition

# Reference: US6583127B1, “Use of etherlysophospholipids as antiinflammatory agents” (Inkeysa. SA, priority 1998, dated 2003)
